Structures are written as SMILES.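 Five concentrations, 48 hours, 96-well plates. The concentration for 50% growth inhibition is given as GI50.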 Active and inactive are the calls of the source. Cut-off read from the data, not from the text of the source: active = GI50 up to about 1.1 µM and inactive = higher.

Among the test systems are RXF 393; PC-3; Malme-3M; OVCAR-5; HCT-116; OVCAR-4; HOP-92; HOP-62; EKVX; SW-620; LOX IMVI; SNB-19; OVCAR-8; NCI-H460; UO-31; SK-MEL-5; SF-268; RPMI-8226.
Common to all, as to experiment: NCI anticancer screen, dose series, 48 h

`CC1=C(C)C(=O)OC(C(C)(O)C2(O)CC3OC34C3CC(O)C56OC5C=CC(=O)C6(C)C3CCC42C)C1` (stereo not drawn): the GI50 with RXF 393 was 2.4 µM (inactive); in the assay with PC-3 it was 2.87 µM (inactive); in the assay with Malme-3M it was 0.762 µM (active); in the assay with OVCAR-5 it was 2.39 µM (inactive); with HCT-116, 1.38 µM (inactive); in the assay with OVCAR-4 it was 4.71 µM (inactive). In addition, the GI50 in the assay on HOP-92 is 1.82 µM (inactive); in the assay with HOP-62, 11 µM (inactive); in the assay on EKVX it was 2.36 µM (inactive); in the assay with SW-620 it was 3.03 µM (inactive); in the assay on LOX IMVI it was 1.79 µM (inactive); in the assay with SNB-19 it was 4.12 µM (inactive). For the same compound, the GI50 is 1.85 µM (inactive) in the assay on OVCAR-8; 1.45 µM (inactive) in the assay with NCI-H460; 0.341 µM (active) in the assay with UO-31; 1.67 µM (inactive) in the assay on SK-MEL-5; 1.64 µM (inactive) in the assay with SF-268; 1.24 µM (inactive) in the assay on RPMI-8226.

For `COc1ccnc2c1C(=O)c1nc3ccccc3c3ccnc-2c13`, the GI50 with RXF 393 was 0.231 µM (active); in the assay with PC-3, 0.141 µM (active); in the assay with Malme-3M, 0.262 µM (active); in the assay on OVCAR-5, 0.52 µM (active); in the assay on HCT-116, 0.0902 µM (active); with OVCAR-4 it was 0.307 µM (active). The GI50 is 0.342 µM (active) with HOP-92; 0.125 µM (active) in the assay with HOP-62; 0.284 µM (active) in the assay with EKVX; 0.0809 µM (active) in the assay with SW-620; 0.155 µM (active) in the assay with LOX IMVI; 0.182 µM (active) in the assay with SNB-19. The GI50 is 0.0512 µM (active) in the assay with OVCAR-8; 0.0232 µM (active) in the assay on NCI-H460; 0.161 µM (active) in the assay with UO-31; 0.0317 µM (active) in the assay on SK-MEL-5; 0.137 µM (active) in the assay on SF-268; 0.201 µM (active) in the assay on RPMI-8226.

In the case of `C=CCOC(=O)N1c2ccc(O[Si](C)(C)C(C)(C)C)cc2[C@@]23O[C@@]24[C@@H]1C#C/C=C\C#C[C@]3(O)C(OC)(OC)C[C@@H]4C`, the GI50 with RXF 393 was 29.5 µM (inactive); in the assay on PC-3, 4.54 µM (inactive); in the assay on Malme-3M, > 100 µM (inactive); in the assay with OVCAR-5, > 100 µM (inactive); with HCT-116 it was 8.38 µM (inactive); with OVCAR-4, 48.6 µM (inactive). For the same compound, the GI50 in the assay with HOP-92 was 18.2 µM (inactive); in the assay with HOP-62 it was > 61.7 µM (inactive); in the assay on EKVX, > 38.5 µM (inactive); in the assay with SW-620 it was 14 µM (inactive); with LOX IMVI, 16.7 µM (inactive); with SNB-19, > 74.6 µM (inactive). In addition, the GI50 was > 53.8 µM (inactive) in the assay with OVCAR-8; 11.5 µM (inactive) with NCI-H460; 14.1 µM (inactive) with UO-31; 18.7 µM (inactive) in the assay on SK-MEL-5; 97.7 µM (inactive) with SF-268; 18.6 µM (inactive) with RPMI-8226.

For the compound `CC(C)CCC[C@@H](C)[C@H]1CC[C@H]2[C@@H]3CC[C@H]4C[C@H](N)CC[C@]4(C)[C@H]3CC[C@]12C`, the GI50 in the assay on RXF 393 is 22.2 µM (inactive); in the assay with PC-3, 5.87 µM (inactive); in the assay on Malme-3M, 17.2 µM (inactive); with OVCAR-5 it was 15.4 µM (inactive); in the assay on HCT-116 it was 30.1 µM (inactive); in the assay on OVCAR-4 it was 21.9 µM (inactive). In addition, the GI50 is 11.7 µM (inactive) in the assay on HOP-92; 20 µM (inactive) in the assay on HOP-62; 17.7 µM (inactive) in the assay with EKVX; 31.6 µM (inactive) in the assay with SW-620; 21.3 µM (inactive) in the assay with LOX IMVI; 15.6 µM (inactive) with SNB-19. The GI50 in the assay with OVCAR-8 is 24.4 µM (inactive); in the assay with NCI-H460, 22 µM (inactive); with UO-31 it was 13.5 µM (inactive); in the assay on SK-MEL-5, 21.5 µM (inactive); in the assay on SF-268 it was 26 µM (inactive); with RPMI-8226 it was 20.7 µM (inactive).

With `COC1OC(C(=O)O)C2OC(C)(C)OC12` (stereo not drawn), the GI50 in the assay with RXF 393, in the assay on PC-3, in the assay on Malme-3M, in the assay on OVCAR-5, with HCT-116 and in the assay on OVCAR-4 was > 100 µM (inactive) throughout. Moreover, the GI50 in the assay on HOP-92, in the assay on HOP-62, in the assay with EKVX, in the assay on SW-620, with LOX IMVI and with SNB-19 was > 100 µM (inactive) throughout. Besides, the GI50 with OVCAR-8, with NCI-H460, with UO-31, in the assay with SK-MEL-5, with SF-268 and in the assay with RPMI-8226 was > 100 µM (inactive) in each case.

In the case of `CSc1nnc(SCc2nn3c(=O)cc(C)nc3s2)s1`, the GI50 in the assay with RXF 393 was 66.8 µM (inactive); in the assay on PC-3, > 100 µM (inactive); with Malme-3M, > 100 µM (inactive); in the assay on OVCAR-5, > 100 µM (inactive); with HCT-116 it was > 100 µM (inactive); in the assay with OVCAR-4, 24.4 µM (inactive). In addition, the GI50 in the assay on HOP-92, with HOP-62, with EKVX, in the assay on SW-620, with LOX IMVI and in the assay on SNB-19 was > 100 µM (inactive) each time. For the same compound, the GI50 with OVCAR-8, in the assay on NCI-H460, with UO-31, with SK-MEL-5, in the assay with SF-268 and with RPMI-8226 was > 100 µM (inactive) in each case.

Consider `COc1c2cc([N+](=O)[O-])cc1CNC(=O)CN1CCOCCOCCN(CCOCCOCC1)CC(=O)NC2`, for which the GI50 with RXF 393, in the assay with PC-3, in the assay with Malme-3M, with OVCAR-5, in the assay with HCT-116 and with OVCAR-4 was > 100 µM (inactive) throughout. For the same compound, the GI50 with HOP-92, with HOP-62, in the assay on EKVX, in the assay on SW-620, with LOX IMVI and with SNB-19 was > 100 µM (inactive) each time. Moreover, the GI50 was > 100 µM (inactive) with OVCAR-8; > 100 µM (inactive) with NCI-H460; > 100 µM (inactive) in the assay with UO-31; > 100 µM (inactive) in the assay on SK-MEL-5; > 100 µM (inactive) in the assay on SF-268; 56.4 µM (inactive) in the assay with RPMI-8226.

Regarding `O=C(Nc1ccc(Nc2ccc3c(c2)C(=O)c2ccccc2C3=O)c2c1C(=O)c1ccccc1C2=O)c1ccccc1`, the GI50 with RXF 393 was 20.3 µM (inactive); with PC-3, 12.1 µM (inactive); in the assay with Malme-3M, 14.1 µM (inactive); with OVCAR-5 it was > 100 µM (inactive); with HCT-116, > 100 µM (inactive); with OVCAR-4, > 100 µM (inactive). The GI50 in the assay on HOP-92 was > 59.7 µM (inactive); with HOP-62 it was 44.9 µM (inactive); in the assay with EKVX it was > 100 µM (inactive); in the assay with SW-620, 38.6 µM (inactive); in the assay with LOX IMVI it was > 82.2 µM (inactive); with SNB-19 it was > 80.5 µM (inactive). The GI50 in the assay with OVCAR-8 is > 86.5 µM (inactive); in the assay with NCI-H460 it was 6.47 µM (inactive); with UO-31, > 100 µM (inactive); with SK-MEL-5, > 42 µM (inactive); in the assay with SF-268, 44.9 µM (inactive); in the assay with RPMI-8226, 38.7 µM (inactive).

Take `Oc1cc(O)c2c(c1)O[C@H](c1cc(O)c(O)c(O)c1)[C@@H](O)C2` [GALLOCATECHIN]: the GI50 is 17 µM (inactive) in the assay on RXF 393; 30.7 µM (inactive) with PC-3; > 100 µM (inactive) in the assay with Malme-3M; 18.8 µM (inactive) with OVCAR-5; 17.9 µM (inactive) in the assay on HCT-116; 22.4 µM (inactive) in the assay on OVCAR-4. Also, the GI50 was > 10 µM (inactive) in the assay with HOP-92; 17.5 µM (inactive) in the assay on HOP-62; 24.8 µM (inactive) with EKVX; 17.3 µM (inactive) in the assay on SW-620; 20.5 µM (inactive) with LOX IMVI; > 100 µM (inactive) in the assay with SNB-19. The GI50 is 16.2 µM (inactive) with OVCAR-8; 19.2 µM (inactive) in the assay on NCI-H460; 18.2 µM (inactive) in the assay on UO-31; 19.1 µM (inactive) in the assay on SK-MEL-5; 23.6 µM (inactive) in the assay with SF-268; 20.7 µM (inactive) in the assay with RPMI-8226.

As for `OC1OC(c2ccc[nH]2)C(F)(F)C(F)(F)C1(F)F` (stereo not drawn), the GI50 in the assay on RXF 393 was > 100 µM (inactive); in the assay with PC-3, > 100 µM (inactive); with Malme-3M, > 100 µM (inactive); with OVCAR-5, > 100 µM (inactive); in the assay with HCT-116, > 100 µM (inactive); in the assay with OVCAR-4, 73.1 µM (inactive). For the same compound, the GI50 is 68.4 µM (inactive) in the assay with HOP-92; > 100 µM (inactive) in the assay with HOP-62; > 100 µM (inactive) with EKVX; > 100 µM (inactive) in the assay on SW-620; > 100 µM (inactive) with LOX IMVI; > 100 µM (inactive) in the assay on SNB-19. Moreover, the GI50 is > 100 µM (inactive) with OVCAR-8; > 100 µM (inactive) in the assay with NCI-H460; 97.7 µM (inactive) with UO-31; 63.4 µM (inactive) with SK-MEL-5; > 100 µM (inactive) in the assay with SF-268; > 100 µM (inactive) in the assay on RPMI-8226.

In the case of `O=C1CNc2cc(N3CCN(c4ccccc4)CC3)ccc2N1`, the GI50 in the assay on RXF 393, in the assay on PC-3, in the assay on Malme-3M, in the assay with OVCAR-5, in the assay on HCT-116 and with OVCAR-4 was > 100 µM (inactive) throughout. Moreover, the GI50 with HOP-92 was > 100 µM (inactive); with HOP-62, > 100 µM (inactive); in the assay with EKVX, 34.1 µM (inactive); in the assay on SW-620, > 100 µM (inactive); with LOX IMVI, > 100 µM (inactive); with SNB-19 it was > 100 µM (inactive). Moreover, the GI50 with OVCAR-8, in the assay with NCI-H460, with UO-31, in the assay with SK-MEL-5, in the assay with SF-268 and with RPMI-8226 was > 100 µM (inactive) each time.

The record behind these values is ChEMBL document CHEMBL1201862, “PubChem BioAssay data set” (2004).
